Measurements from patent publication US20230257366A1, “SULFUR-CONTAINING ISOINDOLINE DERIVATIVE, AND PREPARATION METHOD THEREFOR AND MEDICAL USE THEREOF” (JIANGSU HENGRUI PHARMACEUTICALS CO., LTD., priority 2020, published 2023).
Each block holds one compound with its values, some of them ahead of it.

Columns and labels:
[1] = Pharmacokinetic evaluation in mice after intragastric administration (LC/MS/MS); type: in vivo; settings: female, mouse, in vivo, po, 2 mg/kg
Method: The drug concentration in the plasma of the test animals (mice) at different time points after intragastric administration of the compound of Example 6 and the control example CC-92480 was determined by an LC/MS/MS method. The pharmacokinetic behavior of the compound of the present disclosure in mice was studied and its pharmacokinetic profile was evaluated.
(§1) Compound of Example 6 and control example CC-92480.
Eighteen mice, female, purchased from Beijing Vital River Laboratory Animal Technology Co., Ltd., with animal production license number of SCXK (Shanghai) 2017-0005.
A certain amount of compound of Example 6 was weighed, dissolved by adding 5% by volume of DMSO and 5% Tween 80 (Shanghai Titan Scientific Co., Ltd.), and then prepared into a 0.1 mg/mL clear solution by adding 90% normal saline.
A certain amount of the control example CC-92480 was weighed, dissolved by adding 5% by volume of DMSO and 5% Tween 80 (Shanghai Titan Scientific Co., Ltd.), and then prepared into a 0.1 mg/mL clear solution by adding 90% normal saline.
Nine mice were intragastrically administered with the compound of Example 6 at a dose of 2 mg/kg and at a volume of 0.2 mL/10 g.
Nine mice were intragastrically administered with the control example CC-92480 at a dose of 2 mg/kg and at a volume of 0.2 mL/10 g.
Mice were intragastrically administered with the compound of Example 6 and the control example CC-92480, and 0.2 mL of blood was collected before the administration and 0.25 h, 0.5 h, 1.0 h, 2.0 h, 4.0 h, 6.0 h, 8.0 h, 11.0 h and 24.0 h after the administration (3 animals at each time point), placed in EDTA-K2 anticoagulation tubes, and centrifuged at 10,000 rpm for 1 min(4° C.). Plasma was separated within 1 h, and stored at −20° C. for testing. The process from blood collection to centrifugation was performed under an ice bath.
The content of the test compounds at different concentrations in mouse plasma after the administration was determined: 25 μL of mouse plasma at each time point after the administration was mixed with 50 μL (100 ng/mL) of internal standard solution camptothecin (National Institutes for Drug Control) and 175 μL of acetonitrile. The mixture was vortexed for 5 min and centrifuged for 10 min (3700 rpm/min), and 1 μL of the supernatant of the plasma sample was taken for LC/MS/MS assay (API4000 triple quadrupole tandem mass spectrometer, Applied Biosystems, USA; Shimadzu, LC-30AD ultra high performance liquid chromatography system, Shimadzu, Japan).

[2] = Plasma stability in monkey plasma (LC-MS/MS); type: in vitro ADME; settings: monkey, plasma
Method: The stability of the compound of Example 6 and the control example CC-92480 after incubation in cryopreserved monkey plasma at 37° C. for 0 min, 15 min, 30 min, 60 min, 120 min, 180 min and 240 min was determined quantitatively by LC-MS/MS.
as §1
Monkey plasma was purchased from Shanghai Medicilon Inc.
A certain amount of the compound of Example 6 was weighed and prepared with DMSO to obtain a 30 mM stock solution. A certain volume of the stock solution was diluted into a solution I at a concentration of 1600 μM with DMSO; and a certain volume of the solution I at 1600 μM was diluted with 50% methanol to obtain a working solution II at a concentration of 16 μM. A 30 mM stock solution, a 1600 μM solution I′, and a 16 μM working solution II′ of CC-92480 were prepared as described above.
5 μL of the working solutions at 16 μM of the compound of Example 6 and the control example CC-92480 were each added to 75 μL of plasma to make the final concentration of the compounds of 1 μM. The samples were incubated under a 37° C. water bath for 0 min, 15 min, 30 min, 60 min, 90 min, 120 min, and 180 min. […] The supernatant was analyzed by LC-MS with a sample injection volume of 2 μL.

[3] = tested on: NCI-H929 xenograft tumor; assay: Pharmacodynamic test: NCI-H929 xenograft tumor in CB-17 SCID mice; type: in vivo
Method: This experiment was performed to evaluate the inhibition effect of the compound of Example 6 and the control example CC-92480 on the growth of human multiple myeloma cell NCI-H929 xenograft tumor in CB-17 SCID mice.
Compound of Example 6; control example CC-92480 (see compound 2 of WO2019014100A1, synthesized according to the method disclosed therein)
Solutions of the compound of Example 6 and the control example CC-92480 were prepared with 5% DMSO+20% PEG400+70% (10% TPGS)+5% (1% HPMC K100LV).
Thirty CB-17 SCID female mice, purchased from Beijing Vital River Laboratory Animal Technology Co., Ltd. (certificate No. 20170011006049, SCXK (Shanghai) 2017-0011), weighing about 19 g at the time of purchase, were bred at 5 mice/cage (in 12/12 hour light/dark cycle, at a constant temperature of 23±1° C. and humidity of 50%-60%) and had free access to food and water.
After adaptive feeding, the CB-17 SCID mice were grouped as follows:
NCI-H929 cells in a logarithmic growth phase were inoculated subcutaneously into the right flank of 30 female CB-17 SCID mice at 5×10^6 cells/mouse/100 μL (containing 50 μL of Matrigel). After 10 days, when the tumor volume of the tumor-bearing mice reached about 200 mm^3, the mice were randomly divided into 3 groups according to the tumor volume and body weight: vehicle control group, CC-92480-1 mpk, compound of Example 6-1 mpk, with 7 mice in each group. The day of grouping was set as Day 0 (D0), and intragastric administration was performed once a day for 11 days (Table 2). For the tumor-bearing mice, the tumor volume was measured with a vernier caliper and the body weight was measured with a balance twice a week, and the data were recorded.
All data were plotted and statistically analyzed using Excel and GraphPad Prism 5 software.
The tumor volume (V) was calculated as follows: V=½×a×b^2, where a and b represent length and width, respectively.
The relative tumor proliferation rate T/C (%)=(T−T0)/(C−C0)×100(%), where T and C are the tumor volume of animals at the end of the experiment in the treatment group and control group, respectively; T0 and C0 are the tumor volume of animals at the beginning of the experiment in the treatment group and control group, respectively.
Tumor growth inhibition TGI (%)=1−T/C (%), and when TGI (%) exceeds 100%, no specific value will be shown, and it is expressed only by >100%.
Tumor regression (%)=[(T0−T)/T0]×100(%).

[4] = tested on: NCI-H929 cells; assay: NCI-H929 proliferation experiment (CellTiter-Glo, 5 days); type: cell-based; settings: Homo sapiens, 120 h, 5 days incubation, read-out: IC50 values for the inhibition of proliferation of NCI-H929 cells
Method: The following method was used to determine the inhibitory activity of the compounds of the present disclosure on the proliferation of NCI-H929 cells. The experimental method was briefly described as follows.
NCI-H929 cells (ATCC, CRL-9068) were cultured in a complete medium (RPMI 1640 medium (Hyclone, SH30809.01) containing 10% fetal bovine serum (Corning, 35-076-CV) and 0.05 mM 2-mercaptoethanol (Sigma, M3148)). On the first day of the experiment, NCI-H929 cells were seeded in a 96-well plate at a density of 6000 cells/well with a complete medium to form 100 μL of cell suspension per well, and 10 μL of test compound prepared in a complete medium and diluted in a gradient was added to each well. The compound was firstly dissolved in DMSO, with an initial concentration of 10 mM, and then subjected to serial dilution at a 5-fold concentration gradient for a total of 9 concentration points, with a blank control of 100% DMSO. Another 5 μL of the compound dissolved in DMSO was added to 95 μL of complete medium, i.e., the compound was diluted 20-fold with the complete medium. Finally the compound diluted in the complete medium at 10 μL/well was added to the cell suspension, wherein the final concentrations of the compound were 9 concentration points obtained by 5-fold gradient dilution starting from 50 μM. A blank control containing 0.5% DMSO was set. The plate was incubated in a cell incubator at 37° C. with 5% CO2 for 5 days. On the sixth day, the 96-well cell culture plate was taken out, added with a CellTiter-Glo® luminescent cell activity detect reagent (Promega, G7573) at 50 μL/well, left to stand at room temperature for 10 min, and read for the luminescence signal values using a multi-mode microplate reader (PerkinElmer, EnVision 2015). IC50 values for the inhibitory activity of the compounds were calculated using Graphpad Prism software, with the results shown in Table 1.

SMILES: N#Cc1ccc(N2CCN(Cc3ccc(COc4cccc5c4CN([C@H]4CCC(=O)NC4=O)C5=O)cc3)CC2)c(F)c1 [CC-92480, reference compound]
AUC [1]: 1940 ng·h/mL | CL/F [1]: 17.2 mL/min/kg | Cmax [1]: 692 ng/mL | MRT [1]: 2.3 h | Vd/F [1]: 1.96 L/kg | half-life [1]: 1.3 h | half-life at 1 µM [2]: 3.32 h | Mean tumor volume D0 ([3]; 1 mg/kg qd, baseline at day of grouping (D0), n=7): 157.2 mm^3 | Number of remaining animals/group ([3]; 1 mg/kg qd/11d po): 7/7 | % tumor regression D11 ([3]; 1 mg/kg qd/11d po (i.g.), D11): 34% | Mean tumor volume D11 ([3]; 1 mg/kg qd/11d po (i.g.), D11, n=7): 103.6 mm^3

SMILES: Cc1nc(SC2CCN(c3ccc(C#N)cc3F)CC2)ccc1COc1cccc2c1CN([C@H]1CCC(=O)NC1=O)C2=O [Compound 13, (S)-4-(4-((5-(((2-(2,6-dioxopiperidin-3-yl)-1-oxoisoindolin-4-yl)oxy)methyl)-6-methylpyridin-2-yl)thio)piperidin-1-yl)-3-fluorobenzonitrile]
IC50 [4]: 1.78 nM

SMILES: N#Cc1ccc(N2CCC(Sc3ccc(COc4cccc5c4CN([C@H]4CCC(=O)NC4=O)C5=O)cc3Cl)CC2)c(F)c1 [Compound 14, (S)-4-(4-((2-chloro-4-(((2-(2,6-dioxopiperidin-3-yl)-1-oxoisoindolin-4-yl)oxy)methyl)phenyl)thio)piperidin-1-yl)-3-fluorobenzonitrile]
IC50 [4]: 0.27 nM

Continued, values first:

IC50 [4]: 0.75 nM
SMILES: N#Cc1ccc(N2CCC(Sc3ccc(COc4cccc5c4CN([C@H]4CCC(=O)NC4=O)C5=O)cn3)C2)c(F)c1 (stereo partly drawn) [Compound 15, 4-(3-((5-(((2-((S)-2,6-dioxopiperidin-3-yl)-1-oxoisoindolin-4-yl)oxy)methyl)pyridin-2-yl)thio)pyrrolidin-1-yl)-3-fluorobenzonitrile]

IC50 [4]: 1.13 nM
SMILES: N#Cc1ccc(N2CC(Sc3ccc(COc4cccc5c4CN([C@H]4CCC(=O)NC4=O)C5=O)cc3)C2)c(F)c1 [Compound 16, (S)-4-(3-((4-(((2-(2,6-dioxopiperidin-3-yl)-1-oxoisoindolin-4-yl)oxy)methyl)phenyl)thio)azetidin-1-yl)-3-fluorobenzonitrile]

IC50 [4]: 0.21 nM
SMILES: N#Cc1ccc(N2CCC(Sc3ccc(COc4cccc5c4CN([C@H]4CCC(=O)NC4=O)C5=O)c(F)n3)CC2)c(F)c1 [Compound 17, (S)-4-(4-((5-(((2-(2,6-dioxopiperidin-3-yl)-1-oxoisoindolin-4-yl)oxy)methyl)-6-fluoropyridin-2-yl)thio)piperidin-1-yl)-3-fluorobenzonitrile]

IC50 [4]: 0.34 nM
SMILES: N#Cc1ccc(N2CCC(Sc3cc(F)c(COc4cccc5c4CN([C@H]4CCC(=O)NC4=O)C5=O)c(F)c3)CC2)c(F)c1 [Compound 18, (S)-4-(4-((4-(((2-(2,6-dioxopiperidin-3-yl)-1-oxoisoindolin-4-yl)oxy)methyl)-3,5-difluorophenyl)thio)piperidin-1-yl)-3-fluorobenzonitrile]
